The values below are quoted from earlier work in patent US20110046156A1, “TREATMENT OF HEARING AND BALANCE IMPAIRMENTS WITH REDOX-ACTIVE THERAPEUTICS” (priority 2009, published 2011).

For the compound `[H]/N=C(/N)N[C@H]1[C@H](O)[C@@H](O)[C@H](O[C@@H]2O[C@@H](C)[C@](O)(C=O)[C@H]2O[C@@H]2O[C@@H](CO)[C@H](O)[C@@H](O)[C@@H]2NC)[C@@H](N/C(N)=N\[H])[C@@H]1O` [streptomycin], the “incidence of vestibular impairment” value (1 gram per day) is given as 25%. Besides, the “patients displaying some vestibular impairment” value (2 grams daily for 60 to 120 days) is listed as roughly 75%.
